# Test results reported in patent US20010021697A1, “METHODS AND COMPOSITIONS FOR THE TREATMENT OF MAMMALIAN INFECTIONS EMPLOYING MEDICAMENTS COMPRISING HYMENOPTERA VENOM, PROTEINAGEOUS OR POLYPEPTIDE COMPONENTS THEREOF, OR ANALOGUES OF SUCH PROTEINACEOUS OR POLYPEPTIDE COMPONENTS” (priority 1987, published 2001).
# Where two headings read alike, the source gives them in different places.
# How the values were obtained:
# Type in all cases: cell-based
# [1] = tested on: kanamycin resistant S. aureus; test: Checkerboard titration assay for synergy of honeybee venom with antibiotics (OD660 growth curves)
# S. aureus #140A = tested on: S. aureus #140A
# E. coli #G1880E = tested on: E. coli #G1880E
smiles,measurement,setting,value
CC1(C)S[C@@H]2[C@H](NC(=O)[C@H](N)c3ccccc3)C(=O)N2[C@H]1C(=O)O [AMP],MEAN A660,"[1]; AMP = 0.05, HBV = 0, T0",0.020
same,MEAN A660,"[1]; AMP = 0.05, HBV = 0, T2",0.064
same,MEAN A660,"[1]; AMP = 0.05, HBV = 0, T4",0.230
same,MEAN A660,"[1]; AMP = 0.05, HBV = 0, T6",0.338
same,MEAN A660,"[1]; AMP = 0.05, HBV = 0, T8",0.372
same,MEAN A660,"[1]; AMP = 0.05, HBV = 0, T12",0.352
same,MEAN A660,"[1]; AMP = 0.05, HBV = 0, T24",0.461
same,MEAN A660,"[1]; AMP = 0.1, HBV = 0, T0",0.020
same,MEAN A660,"[1]; AMP = 0.1, HBV = 0, T2",0.064
same,MEAN A660,"[1]; AMP = 0.1, HBV = 0, T4",0.379
same,MEAN A660,"[1]; AMP = 0.1, HBV = 0, T6",0.156
same,MEAN A660,"[1]; AMP = 0.1, HBV = 0, T8",0.112
same,MEAN A660,"[1]; AMP = 0.1, HBV = 0, T12",0.050
same,MEAN A660,"[1]; AMP = 0.1, HBV = 0, T24",0.053
same,MEAN A660,"[1]; AMP = 0.2, HBV = 0, T0",0.020
same,MEAN A660,"[1]; AMP = 0.2, HBV = 0, T2",0.064
same,MEAN A660,"[1]; AMP = 0.2, HBV = 0, T4",0.131
same,MEAN A660,"[1]; AMP = 0.2, HBV = 0, T6",0.110
same,MEAN A660,"[1]; AMP = 0.2, HBV = 0, T8",0.073
same,MEAN A660,"[1]; AMP = 0.2, HBV = 0, T12",0.030
same,MEAN A660,"[1]; AMP = 0.2, HBV = 0, T24",0.037
same,MEAN A660,"[1]; AMP = 0.4, HBV = 0, T0",0.020
same,MEAN A660,"[1]; AMP = 0.4, HBV = 0, T2",0.064
same,MEAN A660,"[1]; AMP = 0.4, HBV = 0, T4",0.202
same,MEAN A660,"[1]; AMP = 0.4, HBV = 0, T6",0.290
same,MEAN A660,"[1]; AMP = 0.4, HBV = 0, T8",0.285
same,MEAN A660,"[1]; AMP = 0.4, HBV = 0, T12",0.271
same,MEAN A660,"[1]; AMP = 0.4, HBV = 0, T24",0.277
same,MEAN A660,"S. aureus #140A; AMP = 0.05, HBV = 0, T0",0.013
same,MEAN A660,"S. aureus #140A; AMP = 0.05, HBV = 0, T2",0.085
same,MEAN A660,"S. aureus #140A; AMP = 0.05, HBV = 0, T4",0.355
same,MEAN A660,"S. aureus #140A; AMP = 0.05, HBV = 0, T6",0.552
same,MEAN A660,"S. aureus #140A; AMP = 0.05, HBV = 0, T12",0.736
same,MEAN A660,"S. aureus #140A; AMP = 0.05, HBV = 0, T24",0.760
same,MEAN A660,"S. aureus #140A; AMP = 0.05, HBV = 0, TB",0.689
same,MEAN A66O,"S. aureus #140A; AMP = 0.1, HBV = 0, T0",0.013
same,MEAN A66O,"S. aureus #140A; AMP = 0.1, HBV = 0, T2",0.085
same,MEAN A66O,"S. aureus #140A; AMP = 0.1, HBV = 0, T4",0.257
same,MEAN A66O,"S. aureus #140A; AMP = 0.1, HBV = 0, T6",0.248
same,MEAN A66O,"S. aureus #140A; AMP = 0.1, HBV = 0, T8",0.155
same,MEAN A66O,"S. aureus #140A; AMP = 0.1, HBV = 0, T12",0.095
same,MEAN A66O,"S. aureus #140A; AMP = 0.1, HBV = 0, T24",0.347
same,MEAN A660,"S. aureus #140A; AMP = 0.2, HBV = 0, T0",0.013
same,MEAN A660,"S. aureus #140A; AMP = 0.2, HBV = 0, T2",0.085
same,MEAN A660,"S. aureus #140A; AMP = 0.2, HBV = 0, T4",0.202
same,MEAN A660,"S. aureus #140A; AMP = 0.2, HBV = 0, T6",0.112
same,MEAN A660,"S. aureus #140A; AMP = 0.2, HBV = 0, T8",0.052
same,MEAN A660,"S. aureus #140A; AMP = 0.2, HBV = 0, T12",0.037
same,MEAN A660,"S. aureus #140A; AMP = 0.2, HBV = 0, T24",0.042
same,MEAN A66O,"S. aureus #140A; AMP = 0.4, HBV = 0, T0",0.013
same,MEAN A66O,"S. aureus #140A; AMP = 0.4, HBV = 0, T2",0.085
same,MEAN A66O,"S. aureus #140A; AMP = 0.4, HBV = 0, T4",0.191
same,MEAN A66O,"S. aureus #140A; AMP = 0.4, HBV = 0, T6",0.110
same,MEAN A66O,"S. aureus #140A; AMP = 0.4, HBV = 0, T8",0.048
same,MEAN A66O,"S. aureus #140A; AMP = 0.4, HBV = 0, T12",0.027
same,MEAN A66O,"S. aureus #140A; AMP = 0.4, HBV = 0, T24",0.027
same,MEAN A660,"E. coli #G1880E; AMP = 0.5, HBV = 0, T0",0.015
same,MEAN A660,"E. coli #G1880E; AMP = 0.5, HBV = 0, T2",0.084
same,MEAN A660,"E. coli #G1880E; AMP = 0.5, HBV = 0, T4",0.600
same,MEAN A660,"E. coli #G1880E; AMP = 0.5, HBV = 0, T6",1.001
same,MEAN A660,"E. coli #G1880E; AMP = 0.5, HBV = 0, T8",0.999
same,MEAN A660,"E. coli #G1880E; AMP = 0.5, HBV = 0, T12",1.085
same,MEAN A660,"E. coli #G1880E; AMP = 0.5, HBV = 0, T24",1.156
same,MEAN A660,"E. coli #G1880E; AMP = 1, HBV = 0, T0",0.015
same,MEAN A660,"E. coli #G1880E; AMP = 1, HBV = 0, T2",0.084
same,MEAN A660,"E. coli #G1880E; AMP = 1, HBV = 0, T4",0.538
same,MEAN A660,"E. coli #G1880E; AMP = 1, HBV = 0, T6",0.628
same,MEAN A660,"E. coli #G1880E; AMP = 1, HBV = 0, T8",0.493
same,MEAN A660,"E. coli #G1880E; AMP = 1, HBV = 0, T12",0.475
same,MEAN A660,"E. coli #G1880E; AMP = 1, HBV = 0, T24",0.504
same,MEAN A660,"E. coli #G1880E; AMP = 2, HBV = 0, T0",0.015
same,MEAN A660,"E. coli #G1880E; AMP = 2, HBV = 0, T2",0.084
same,MEAN A660,"E. coli #G1880E; AMP = 2, HBV = 0, T4",0.428
same,MEAN A660,"E. coli #G1880E; AMP = 2, HBV = 0, T12",0.136
same,MEAN A660,"E. coli #G1880E; AMP = 2, HBV = 0, T24",0.647
same,MEAN A660,"E. coli #G1880E; AMP = 4, HBV = 0, T0",0.015
same,MEAN A660,"E. coli #G1880E; AMP = 4, HBV = 0, T2",0.084
same,MEAN A660,"E. coli #G1880E; AMP = 4, HBV = 0, T4",0.158
same,MEAN A660,"E. coli #G1880E; AMP = 4, HBV = 0, T6",0.063
same,MEAN A660,"E. coli #G1880E; AMP = 4, HBV = 0, T12",0.055
same,MEAN A660,"E. coli #G1880E; AMP = 4, HBV = 0, T24",0.056
